Measured values published in ChEMBL document CHEMBL2331130, “Synthesis and antibacterial activity of 9-oxime ether non-ketolides, and novel binding mode of alkylides with bacterial rRNA” (2013).
In brackets after ≈: the same amount, converted by molar mass.

Key:
Format in all cases: functional
Streptococcus pyogenes [1] = assay: Antibacterial activity against MLS-resistant (constitutive) Streptococcus pyogenes A2 by broth microdilution method
[2] = test system: Staphylococcus epidermidis; assay: Antibacterial activity against methicillin-susceptible, MLS-resistant (inducible) Staphylococcus epidermidis E1 by broth microdilution method
[3] = test system: Staphylococcus epidermidis; assay: Antibacterial activity against methicillin-resistant, coagulase-negative, MLS-resistant (inducible) Staphylococcus epidermidis E3 by broth microdilution method
Staphylococcus aureus [4] = assay: Antibacterial activity against erythromycin-susceptible Staphylococcus aureus ATCC 29213 by broth microdilution method
Streptococcus pneumoniae [5] = assay: Antibacterial activity against erythromycin-susceptible Streptococcus pneumoniae ATCC 49619 by broth microdilution method
Streptococcus pneumoniae [6] = assay: Antibacterial activity against penicillin-susceptible Streptococcus pneumoniae PU09 harboring mef gene by broth microdilution method
Streptococcus pyogenes [7] = assay: Antibacterial activity against erythromycin-susceptible Streptococcus pyogenes A3 by broth microdilution method
Staphylococcus aureus [8] = assay: Antibacterial activity against methicillin-resistant, […], MLS-resistant (constitutive) Staphylococcus aureus PU 19 by broth microdilution method
Staphylococcus aureus [9] = assay: Antibacterial activity against methicillin-susceptible, MLS-resistant (inducible) Staphylococcus aureus PU 64 by broth microdilution method
[10] = test system: Streptococcus dysgalactiae; assay: Antibacterial activity against erythromycin-resistant Streptococcus dysgalactiae A1 by broth microdilution method
Staphylococcus aureus [11] = assay: Antibacterial activity against methicillin-resistant, MLS-resistant (inducible) Staphylococcus aureus PU 32 by broth microdilution method
Staphylococcus aureus [12] = assay: Antibacterial activity against methicillin-resistant, MLS-resistant (constitutive) Staphylococcus aureus PU 20 by broth microdilution method
Streptococcus pneumoniae [13] = assay: Antibacterial activity against MLS-resistant (constitutive), penicillin-susceptible Streptococcus pneumoniae PU27 by broth microdilution method
Streptococcus pneumoniae [14] = assay: Antibacterial activity against MLS-resistant (constitutive), penicillin-resistant Streptococcus pneumoniae PU11 by broth microdilution method
[15] = test system: Staphylococcus epidermidis; assay: Antibacterial activity against methicillin-resistant, MLS-resistant (constitutive) Staphylococcus epidermidis E2 by broth microdilution method

Structure (SMILES)	MIC (Streptococcus pyogenes [1]) [µg/mL]	MIC [2] [µg/mL]	MIC [3] [µg/mL]	MIC (Staphylococcus aureus [4]) [µg/mL]	MIC (Streptococcus pneumoniae [5]) [µg/mL]	MIC (Streptococcus pneumoniae [6]) [µg/mL]	MIC (Streptococcus pyogenes [7]) [µg/mL]	MIC (Staphylococcus aureus [8]) [µg/mL]	MIC (Staphylococcus aureus [9]) [µg/mL]	MIC [10] [µg/mL]	MIC (Staphylococcus aureus [11]) [µg/mL]	MIC (Staphylococcus aureus [12]) [µg/mL]	MIC (Streptococcus pneumoniae [13]) [µg/mL]	MIC (Streptococcus pneumoniae [14]) [µg/mL]	MIC [15] [µg/mL]
CC[C@H]1OC(=O)[C@H](C)[C@@H](OC(=O)Cc2ccccn2)[C@H](C)[C@@H](O[C@@H]2O[C@H](C)C[C@H](N(C)C)[C@H]2O)[C@](C)(OC)C[C@@H](C)/C(=N\OC/C=C/c2cnc3ccccc3c2)[C@H](C)[C@H]2OC(=O)O[C@@]21C	32 (≈ 34.9 µM)	32 (≈ 34.9 µM)	32 (≈ 34.9 µM)	32 (≈ 34.9 µM)	1 (≈ 1.09 µM)	16 (≈ 17.4 µM)	0.5 (≈ 0.545 µM)	> 256	32 (≈ 34.9 µM)	8 (≈ 8.72 µM)	64 (≈ 69.8 µM)	> 256	32 (≈ 34.9 µM)	64 (≈ 69.8 µM)	> 256
CC[C@H]1OC(=O)[C@H](C)[C@@H](OC(=O)Cc2cccnc2)[C@H](C)[C@@H](O[C@@H]2O[C@H](C)C[C@H](N(C)C)[C@H]2O)[C@](C)(OC)C[C@@H](C)/C(=N\OC/C=C/c2cnc3ccccc3c2)[C@H](C)[C@H]2OC(=O)O[C@@]21C	128 (≈ 140 µM)	> 256	> 256	64 (≈ 69.8 µM)	2 (≈ 2.18 µM)	8 (≈ 8.72 µM)	1 (≈ 1.09 µM)	> 256	32 (≈ 34.9 µM)	16 (≈ 17.4 µM)	64 (≈ 69.8 µM)	> 256	64 (≈ 69.8 µM)	128 (≈ 140 µM)	> 256
CC[C@H]1OC(=O)[C@H](C)[C@@H](O[C@H]2C[C@@](C)(OC)[C@@H](O)[C@H](C)O2)[C@H](C)[C@@H](O[C@@H]2O[C@H](C)C[C@H](N(C)C)[C@H]2O)[C@](C)(OC)C[C@@H](C)C(=O)[C@H](C)[C@@H](O)[C@]1(C)O [CLARITHROMYCIN]	> 256	> 256	> 256	0.5 (≈ 0.668 µM)	0.032 (≈ 0.0428 µM)	> 256	≤ 0.008	> 256	> 256	16 (≈ 21.4 µM)	> 256	> 256	> 256	> 256	> 256
CC[C@H]1OC(=O)[C@H](C)[C@@H](O[C@H]2C[C@@](C)(OC)[C@@H](O)[C@H](C)O2)[C@H](C)[C@@H](O[C@@H]2O[C@H](C)C[C@H](N(C)C)[C@H]2O)[C@](C)(O)C[C@@H](C)CN(C)[C@H](C)[C@@H](O)[C@]1(C)O [AZITHROMYCIN]	> 256	> 256	> 256	2 (≈ 2.67 µM)	0.25 (≈ 0.334 µM)	64 (≈ 85.4 µM)	≤ 0.008	> 256		64 (≈ 85.4 µM)	> 256			> 256	> 256
CC[C@H]1OC(=O)[C@H](C)[C@@H](O)[C@H](C)[C@@H](O[C@@H]2O[C@H](C)C[C@H](N(C)C)[C@H]2O)[C@](C)(OC)C[C@@H](C)/C(=N\OCCCc2cncc3ccccc23)[C@H](C)[C@H]2OC(=O)O[C@@]21C	32 (≈ 40 µM)	> 256	> 256	> 256	8 (≈ 10 µM)	8 (≈ 10 µM)	4 (≈ 5 µM)	> 256	256 (≈ 320 µM)	16 (≈ 20 µM)	> 256	> 256	32 (≈ 40 µM)	32 (≈ 40 µM)	> 256
CC[C@H]1OC(=O)[C@H](C)C(=O)[C@H](C)[C@@H](O[C@@H]2O[C@H](C)C[C@H](N(C)C)[C@H]2O)[C@](C)(OC)C[C@@H](C)C(=O)[C@H](C)[C@H]2N(CCCCn3cnc(-c4cccnc4)c3)C(=O)O[C@]12C [TELITHROMYCIN]	128 (≈ 158 µM)	1 (≈ 1.23 µM)	8 (≈ 9.85 µM)	0.25 (≈ 0.308 µM)	≤ 0.008	0.125 (≈ 0.154 µM)	≤ 0.008	> 256	0.5 (≈ 0.616 µM)	2 (≈ 2.46 µM)	1 (≈ 1.23 µM)	> 256	0.125 (≈ 0.154 µM)	4 (≈ 4.93 µM)	> 256
CC[C@H]1OC(=O)[C@H](C)[C@@H](OC(=O)Cc2ccccn2)[C@H](C)[C@@H](O[C@@H]2O[C@H](C)C[C@H](N(C)C)[C@H]2O)[C@](C)(OC)C[C@@H](C)/C(=N\OCC#Cc2cncc3ccccc23)[C@H](C)[C@H]2OC(=O)O[C@@]21C	32 (≈ 35 µM)	> 256	> 256	32 (≈ 35 µM)	1 (≈ 1.09 µM)	8 (≈ 8.74 µM)	8 (≈ 8.74 µM)	> 256	16 (≈ 17.5 µM)	8 (≈ 8.74 µM)	32 (≈ 35 µM)	> 256	32 (≈ 35 µM)	32 (≈ 35 µM)	> 256
